Where “and” joins values, the source holds several entries; their conditions need not be identical. Equal entries are not always repeated.
Assays:
Type in all cases: in vivo, Arabidopsis thaliana
anthocyanin accumulation = assay: Anthocyanins content; details: FIG. 10 (C)
Experimental: Lipids and anthocyanins were analyzed as previously described by Jouhet (2003) and Ticconi (2001).

[1] = test system: PHT1;4, PHT1;8, MGD3, PLDz2, SQD2, SPX1; assay: qPCR of Pi starvation regulated genes in lpr1 mutant; details: 14 days-old plants, FIG. 12
Experimental: (§1) Plant RNA was extracted with the RNeasy kit (QIAGEN, France). For transcriptome data, RNA were analysed by the CATMA technology (Complete Arabidopsis Transcriptome Microarray). For qPCR, poly(dT) cDNA were prepared from 500 ng total RNA with Superscript III reverse transcriptase (Invitrogen, France) and analysed on a LightCycler 480 apparatus (Roche Diagnostics, France) with the SYBR Green I Master kit (Roche Diagnostics, France) according to the manufacturer's instructions. Targets were quantified with specific primer pairs designed with Primer3 website (http://frodo.wi.mit.edu/primer3/) (see Table II below). Biological triplicates were performed for all experiments. Expression levels were normalized using At2g16600, At3g04120, At1g35160 and At1g32050 genes.

[2] = Total phosphorus content by ICP; details: FIG. 3 (C)
Experimental: For the quantification of ions content, 50 mg of dry weight of each sample were mineralized in 14% HNO3 using a MarsX microwave system (CEM) for the determination of macro- and microelements by inductively coupled plasma optical emission spectrometry (ICP OES Vista MPX, Varian). Biological triplicates were performed for all experiments.

PHT1 genes (PHT1;4) = assay: qPCR of PHT1 transcript level on root mRNA
Experimental: as §1

Col-0 plants = assay: Shoot (rosette) area after 28 days; details: four weeks on −Pi medium, FIG. 10 (A), (B)
Experimental: (§2) In the Pi deficient medium, NaCl (0.5 mM) was used to replace the equivalent amount of sodium provided by NaH2PO4. For controls of the effects of the compounds, 1% of DMSO (Dimethyl sulfoxid, SIGMA, 472301), solvent for the tested compounds, was added. After 2 days at 4° C., the plates were placed in a vertical position and plants were grown in a culture chamber under a 16 h light/8 h dark regime (24/21° C., 150 μE m^−2s^−1). For 4 weeks culture, large plates (24×24 cm) were placed in a horizontal position. Root architecture and aerial part area were quantified using program ImageJ.

[3] = test system: SQD2, MGD3, PLDz2, SQD1 and MGD2; assay: qPCR of genes involved in lipid synthesis; details: 40 μM, 14 days, FIG. 5 (A)
Experimental: as §1

[4] = test system: genes regulated by Pi starvation; assay: Global transcriptomic analysis (CATMA) of roots
Experimental: as §1
To investigate on a wider scale the putative Phosphatin1 effect, a transcriptional analysis of the global genome was performed using the CATMA technology (http://www.catma.org/, URGV, France). It was compared transcript expression in roots of 14-days-old plantlets, grown in −Pi, −Pi+PTN1 or +Pi.
Table III: Comparison of PTN1 treatment and phosphate supply on global transcriptomic analysis. For this analysis, 14-days-old WT root samples of plants grown on −Pi, −Pi+PTN1 (40 μM) and +Pi were used. Data are expressed as ratio values between +Pi and −Pi or −Pi+PTN1 and −Pi respectively.

root cortical cells = assay: Cortical cell size of root; details: −Pi seedlings, FIG. 7 (C)
cycB1::GUS = assay: Cell cycle marker cycB1::GUS in root tip; details: 40 μM, −Pi seedlings, FIG. 7 (B)
Experimental: The GUS activity was detected as previously described by Jefferson et al. (1987), using a GUS staining solution containing 50 mM sodium phosphate buffer pH 7.0; 0.01% Triton X-100, 1 mM K3Fe(CN)6, 1 mM K4Fe(CN)6, 1 mg/ml 5-bromo-4-chloro-3-indolyl B-D-glucuronide (X-Gluc). For cycB1::GUS staining, plants were incubated 6 hours at 37° C.

Pi uptake capacity = assay: Phosphate uptake experiments (33PO4); details: −Pi+PTN1 vs −Pi, 7-day-old plantlets, FIG. 3 (B)
Experimental: Phosphate uptake experiments were performed as previously described by Narang et al. (2000). 24 seedlings per conditions were incubated separately in a phosphate incubation solution containing ^33PO4 (5 mM MES, 0.1 mM CaCl2, 20 μM KH2PO4, 0.15 μCi/ml ^33PO4) for 2 h. After incubation in the uptake solution, plantlets were transferred to a chilled desorption medium (5 mM MES, 0.1 mM CaCl2, 1 mM KH2PO4) for 2 h at 4° C. Then, the seedlings were dried in scintillation vials at 60° C. overnight. An amount of 2 ml of scintillation cocktail (InstaGel, PerkinElmer, Wellesley, Mass., USA) was added and the radioactivity was measured with a scintillation analyzer (TRICARB, Packard instrument company). The amount of phosphate absorbed during the experiment was calculated and normalized per cm of root.

wild-type (WT) seedlings = assay: Primary root growth of wild-type seedlings
Experimental: as §2

[5] = 14-days-old roots, −Pi+PTN1 40 μM vs −Pi
[6] = gene classes of Thibaud et al. (2010)

O=c1c(Sc2ccc(Cl)cc2)c(Sc2ccc(Cl)cc2)c1=O [PTN1]
anthocyanin accumulated, less than control grown on −Pi (anthocyanin accumulation): around 60% | expression of PHT1;4, PHT1;8, MGD3, PLDz2, SQD2, SPX1 in lpr1 [1]: repressed the expression of these genes in lpr1 to a similar level as observed in the WT | phosphorous amount vs −Pi control, leaves [2]: +40% | phosphorous amount vs −Pi control, shoot [2]: +90% | reduction of the impact of Pi starvation on the level of induction of PHT1 transcripts (PHT1 genes (PHT1;4); 40 μM, roots, 7-day-old plantlets, FIG. 3 (A)): at least 50% | efficiency on PHT1;4 relative to PTN2 (PHT1 genes (PHT1;4); FIG. 2 (B)): twice more efficient than PTN2 | effect on PHT1;4 transcript level (PHT1 genes (PHT1;4); qPCR on root mRNA, FIG. 2 (B)): dose dependant manner | rosette area (leaf growth) vs −Pi (Col-0 plants): +50% | expression of SQD2, MGD3, PLDz2, SQD1 and MGD2 [3]: repressed the expression | genes de-regulated in an opposite way compared with +Pi treatment ([4]; 40 μM, 14-days-old roots): around 4% | number of the 279 genes induced +Pi/−Pi also induced by PTN1 ([4]; 40 μM, 14-days-old roots): 115 genes | number of the 279 genes induced +Pi/−Pi repressed by PTN1 ([4]; 40 μM, 14-days-old roots): 11 genes | number of the 783 genes repressed +Pi/−Pi also repressed by PTN1 ([4]; 40 μM, 14-days-old roots): 316 genes | number of the 783 genes repressed +Pi/−Pi induced by PTN1 ([4]; 40 μM, 14-days-old roots): 30 genes | percentage of the 279 genes induced +Pi/−Pi also induced by PTN1 ([4]; 40 μM, 14-days-old roots): 41% and 41.2% | percentage of the 279 genes induced +Pi/−Pi repressed by PTN1 ([4]; 40 μM, 14-days-old roots): 3.9% | percentage of the 783 genes repressed +Pi/−Pi also repressed by PTN1 ([4]; 40 μM, 14-days-old roots): 40% and 40.3% | percentage of the 783 genes repressed +Pi/−Pi induced by PTN1 ([4]; 40 μM, 14-days-old roots): 3.8% | number of genes induced vs −Pi [4, 5]: 1001 genes | number of genes repressed vs −Pi [4, 5]: 1666 genes | number of genes modulated vs −Pi ([4]; 14-days-old roots, −Pi+PTN1 40 μM vs −Pi, more than two fold change, Bonferroni <0.05): 2667 genes | local genes repressed by Pi also repressed by PTN1 [4, 6]: 45% | systemic genes induced by Pi also regulated by PTN1 in the same direction [4, 6]: 55% | systemic genes repressed by Pi also regulated by PTN1 in the same direction [4, 6]: 65% | expression of PHT1;5 and PHT1;8 ([4]; transcriptomic analysis): down regulation | expression of lipid conversion genes including PLDζ2 and MGD3 ([4]; transcriptomic analysis): down regulated | root cortical cell elongation (root cortical cells): restored root cell elongation of −Pi seedlings to an extant closed to the untreated control grown on a +Pi medium | CycB1 expression in root tip (cycB1::GUS): expressed in the root tip of −Pi seedlings but there were fewer stained cells than in the +Pi control | reduction of Pi uptake capacity (Pi uptake capacity): 25% | primary root growth at various external Pi concentrations (15-250 uM) (wild-type (WT) seedlings; 10 uM, 5 days on Pi rich medium then 24 hours on tested conditions, FIG. 7 (D)): improved root growth until 50/75 μM of Pi | primary root growth on −Pi (wild-type (WT) seedlings; WT, 7-day-old plantlets, FIG. 7 (A)): promote the primary root growth in a dose dependent manner | concentration of maximum effect on primary root growth and PHT1;4 inhibition (wild-type (WT) seedlings; −Pi): 40 µM
